Experimental data published in PubChem BioAssay (NCI).
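Cultured in 96-well plates, cells were exposed to test compound for 48 hours across five concentrations. The concentration for full growth arrest is given as TGI.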

Legend:
Experiment in all cases: inhibition of tumour cell growth, NCI panel, 48 h
K-562 leukemia = test system: K-562 leukemia
DMS 114 small cell lung = test system: DMS 114 small cell lung
OVCAR-3 ovarian = test system: OVCAR-3 ovarian
HCT-116 colon = test system: HCT-116 colon
OVCAR-8 ovarian = test system: OVCAR-8 ovarian
KM20L2 colon = test system: KM20L2 colon
MALME-3M melanoma = test system: MALME-3M melanoma
MOLT-4 leukemia = test system: MOLT-4 leukemia
OVCAR-5 ovarian = test system: OVCAR-5 ovarian
MDA-MB-435 = test system: MDA-MB-435
A498 renal = test system: A498 renal
MCF7 breast = test system: MCF7 breast

Compound | TGI (K-562 leukemia) [µM] | TGI (DMS 114 small cell lung) [µM] | TGI (OVCAR-3 ovarian) [µM] | TGI (HCT-116 colon) [µM] | TGI (OVCAR-8 ovarian) [µM] | TGI (KM20L2 colon) [µM] | TGI (MALME-3M melanoma) [µM] | TGI (MOLT-4 leukemia) [µM] | TGI (OVCAR-5 ovarian) [µM] | TGI (MDA-MB-435) [µM] | TGI (A498 renal) [µM] | TGI (MCF7 breast) [µM]
[N-]=[N+]=NC(c1cn(C2CC(O)C(CO)O2)c(=O)[nH]c1=O)C(Br)Br (configuration not stated) | > 100 | > 100 | > 100 | > 100 | > 100 | > 100 | > 100 | > 100 | > 100 | – | – | –
Clc1ccc(C(c2ccccc2Cl)C(Cl)Cl)cc1 (configuration not stated) | 44.2 | 36.7 | 34.3 | 31.4 | 40 | 33.8 | 33.5 | 41.1 | 33.9 | 32 | 38.6 | 37.8
CN1C/C(=C\c2cccs2)C(O)/C(=C/c2cccs2)C1 (configuration not stated) | > 100 | – | > 100 | > 100 | > 100 | – | > 100 | 69.6 | > 100 | > 100 | > 100 | > 100
CCN(CC)CCCNc1ccc2nc(C)n3c4ccc(O)cc4c(=O)c1c23 | 37.2 | 21.5 | 21.6 | 11.1 | 19.6 | 17.1 | 22.8 | 17 | 20.2 | 22 | 24.5 | 17.6
O=C1C(Br)=C(c2ccccc2)O/C1=C/C(=O)c1ccc(Br)cc1 | > 100 | – | > 100 | > 100 | 81.1 | – | > 100 | > 100 | > 100 | > 100 | > 100 | > 100
N#CN/C(N)=N/C/N=C(\N)NC#N | > 100 | > 100 | > 100 | > 100 | > 100 | > 100 | > 100 | > 100 | > 100 | – | > 100 | –
O=C(/C=C/c1cccc(Oc2ccccc2)c1)NCc1ccc(C(=O)NCc2ccccc2)cc1 | > 100 | – | > 100 | > 100 | > 100 | – | > 100 | > 100 | > 100 | > 100 | > 100 | > 100
COc1ccc(C(=O)O[C@H]2[C@@H]3C=CO[C@@H](OC4OC(CO)C(O)C(O)C4O)[C@@H]3[C@@]3(CO)O[C@@H]23)cc1O (some centres not stated) | > 100 | > 100 | > 100 | – | > 100 | > 100 | > 100 | > 100 | > 100 | – | > 100 | –
Cc1cc2/c(=C\c3ccc(N(C)C)cc3)c3ccccc3n2[n+]1C | 21.4 | – | 2.63 | 2.55 | 1.78 | – | 2.98 | 1.32 | 21.3 | 1.84 | 9.33 | 6.55
CCC1(N=[N+]=[N-])C(=O)c2ccccc2N(C)C1=O (configuration not stated) | > 100 | > 100 | > 100 | > 100 | > 100 | > 100 | > 100 | > 100 | > 100 | – | > 100 | –
Cc1c2ccncc2cc2c1[nH]c1ccccc12 | 6.01 | 16.9 | 25.8 | 7.12 | 16.2 | 22.4 | 20.5 | 6.59 | 13.6 | – | 12.2 | 23.5
O=C(NCCN1CCOCC1)c1cn2c(ccc3sc4ccccc4c(=O)c32)n1 | > 100 | – | > 100 | 29 | > 100 | – | > 100 | > 100 | > 100 | > 100 | > 100 | > 100
COC(=O)C1Cc2cc3c(cc2C1=O)CCCC3 (configuration not stated) | > 100 | – | > 100 | > 100 | > 100 | – | > 100 | > 100 | > 100 | > 100 | > 100 | > 100
CC(=O)OCC1OC(n2cc(F)c(=O)[nH]c2=O)C(NC(=O)OCc2ccccc2)C(OC(C)=O)C1OC(C)=O (configuration not stated) | > 100 | > 100 | > 100 | > 100 | > 100 | > 100 | > 100 | > 100 | > 100 | – | > 100 | > 100
COc1ccc(-n2[nH]nc(C(N)=O)c2=O)cc1 | > 100 | – | 13.8 | > 100 | > 100 | – | > 100 | > 100 | > 100 | > 100 | > 100 | > 100
NC1=C(NC(=O)Cc2ccccc2F)C(=O)c2ccccc2C1=O | > 100 | > 100 | 66.9 | > 100 | > 100 | > 100 | 50.9 | > 100 | – | – | – | –
O=C(O)CCS/C(=C\C(SCCC(=O)O)c1ccc(Cl)cc1)c1ccc(Cl)cc1 (configuration not stated) | > 100 | – | 49 | 57.5 | > 100 | – | > 100 | > 100 | > 100 | > 100 | 39 | 60.9
NC(=O)N/N=C(/CC1C(=O)Oc2ccccc21)c1ccccc1O (configuration not stated) | > 100 | – | > 100 | > 100 | > 100 | – | > 100 | 50.9 | > 100 | > 100 | > 100 | > 100
